Assay results as given in PMC4763238, “Resveratrol induces autophagy by directly inhibiting mTOR through ATP competition” (Scientific Reports, 2016).

Biological target: T1, mTOR (Homo sapiens, UniProt P42345)
T1 construct: GST-tagged recombinant fragment mTOR, some regulatory domains deleted, intact kinase domain; also immunoprecipitated full-length HA-mTOR
Assay: in vitro kinase assay (GST-S6K or 4E-BP1 phosphorylation), with ATP competition and a resistant mutant
Format: biochemical

T1 sequence (P42345 1360-2549): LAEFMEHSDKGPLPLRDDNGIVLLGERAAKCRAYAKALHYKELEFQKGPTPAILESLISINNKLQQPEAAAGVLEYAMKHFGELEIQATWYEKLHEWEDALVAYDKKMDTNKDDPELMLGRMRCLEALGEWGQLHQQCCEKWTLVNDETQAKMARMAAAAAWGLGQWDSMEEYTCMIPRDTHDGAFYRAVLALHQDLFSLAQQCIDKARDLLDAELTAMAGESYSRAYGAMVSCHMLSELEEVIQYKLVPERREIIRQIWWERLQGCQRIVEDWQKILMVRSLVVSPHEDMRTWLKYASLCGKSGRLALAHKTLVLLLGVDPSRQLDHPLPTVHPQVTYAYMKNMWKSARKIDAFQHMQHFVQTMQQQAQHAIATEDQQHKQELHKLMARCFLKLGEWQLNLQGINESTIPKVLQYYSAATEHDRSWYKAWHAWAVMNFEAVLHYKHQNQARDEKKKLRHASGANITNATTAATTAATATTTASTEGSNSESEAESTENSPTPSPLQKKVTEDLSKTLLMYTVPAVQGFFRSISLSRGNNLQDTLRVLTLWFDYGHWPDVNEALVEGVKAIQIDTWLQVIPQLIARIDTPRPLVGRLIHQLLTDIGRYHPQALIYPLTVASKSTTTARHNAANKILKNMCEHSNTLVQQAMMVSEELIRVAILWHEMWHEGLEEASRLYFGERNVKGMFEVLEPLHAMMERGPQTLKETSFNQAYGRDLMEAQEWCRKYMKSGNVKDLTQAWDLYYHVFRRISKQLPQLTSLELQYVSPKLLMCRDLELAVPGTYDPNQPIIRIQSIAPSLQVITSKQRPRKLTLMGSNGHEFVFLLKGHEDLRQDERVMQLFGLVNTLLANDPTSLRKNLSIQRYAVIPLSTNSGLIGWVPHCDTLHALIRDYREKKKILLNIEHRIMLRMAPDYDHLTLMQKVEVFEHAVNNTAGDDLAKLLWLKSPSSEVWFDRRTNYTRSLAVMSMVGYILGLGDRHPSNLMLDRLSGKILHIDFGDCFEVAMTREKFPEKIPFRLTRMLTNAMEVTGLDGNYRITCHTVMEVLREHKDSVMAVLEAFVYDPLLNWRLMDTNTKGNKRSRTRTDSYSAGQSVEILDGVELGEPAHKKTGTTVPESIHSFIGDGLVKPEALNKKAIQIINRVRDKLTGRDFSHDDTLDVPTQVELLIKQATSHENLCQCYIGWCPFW

`Oc1ccc(/C=C/c2cc(O)cc(O)c2)cc1` [resveratrol, 3,40,5-trihydroxy-trans-stilbene] was tested, and the IC50 was about 10 µM.
